Where two headings read alike, the source gives them in different places.
How the values were obtained:
PANK2−/− IMR32 cells = assay: Coenzyme A assay in PANK2 silenced cells (LC-MS quantification of free CoA); assay type: cell-based, human; conditions: fold increase in CoA levels relative to controls, treated twice, 24 h + 24 h; for fold induction at 50 µM: compound concentration 50 uM; for fold induction at 1 µM: compound concentration 1 uM
Protocol: A human neuroblastoma IMR32 cell line (ATCC) with stably PANK2 silencing was obtained by lentiviral-delivered small hairpin RNA and cultured in MEM (Invitrogen) supplemented with 10% fetal bovine serum, 2 mM glutamine, 1% penicillin-streptomycin, 1 mM sodium pyruvate, 1 mM non-essential amino acids, and 1.5 g/l sodium bicarbonate.
A non-silencing shRNA construct (scrambled shRNA) and an empty vector expressing GFP alone were used as negative controls. The GFP tag subcloned into the lentiviral vectors was used to monitor the transfection efficiency.
Three days after transduction medium was removed and replaced with fresh medium containing […] puromycin. […] The level of PANK2 expression in selected clones was assessed by Western Blot analysis.
To quantify CoA, PANK2−/− IMR32 cells were plated on 12-well culture plates (Corning) at a density of 0.2×10^6 cells per well. […] Controls with medium containing 0.1% DMSO without test compounds were also included in each plate. […] Before LC-MS analysis of CoA levels, cells were harvested, counted, and collected in a 15 ml falcon tube and centrifuged at 200×g for 5 min at 4° C. Supernatant was removed and cell pellet was washed in 10 ml of ice-cold PBS. To further confirm that the numbers of cells in each sample were equivalent, an equal fraction of pellet was collected from each sample and subjected to protein determination analysis. After centrifugation and supernatant removal, the cell pellet was rapidly frozen in Liquid Nitrogen and stored at −80° C. until analysis.
Intracellular CoA levels were calculated considering an intracellular volume of 1 million cells=2 μl.
The 1*10^6 cellular pellet was extracted with 120 μl of aqueous 20% TFA.
100 μL samples of supernatant were dried under N2 at 20° C. in the dark.
Samples were re-dissolved in 100 μl of 10 mM NH4^+ AcO^− buffer pH 5.1+IS (Dextrorphan 50 ng/ml), stirred for 2 min, sonicated in ultrasonic bath for 1 min, then stirred again for 1 min, and injected into LC-MS.
LC-MS/MS was performed using an Agilent HPLC (1100 Series, USA). The LC system was interfaced with an API-4000 Q-Trap triple quadrupole mass spectrometer (AB Sciex, Toronto, Canada) equipped with a TurboIonSpray ionization source operating in positive ion mode. Analyst™ software version 1.6 (AB Sciex, Toronto, Canada) was used for data acquisition and processing. CoA was separated using a Luna C18 column (2.0×50 mm; 5 μm particle size), column at 25° C. and flow rate of 0.2 ml/min. Injection volume was 15 μl. The mobile phases consisted of water containing 10 mM ammonium acetate pH 7 (mobile phase A) and MeCN-2-propanol 9:1 (mobile phase B).
Results are expressed as fold increase in CoA levels relative to controls (using LC-MS quantification of free CoA).

[1] = Stability in human whole blood; assay type: in vitro ADME; conditions: 37° C., up to 60 min
Protocol: The stability of selected compounds in human whole blood was evaluated according to the following protocol. Compounds and positive control samples were dissolved in 100% DMSO at 3 mM (stock solution). To investigate the stability of the test compounds in whole blood, a 200 μM working solution (WS) in water has been prepared by adding 66.66 μl of each 3 mM stock solution to 933.34 μl of water (6.66% DMSO content). After pre-incubation of the whole blood at 37° C. for 5 min in an eppendorf, 10.5 μl of each working solution were spiked into 689.5 μl of heated blood. The obtained 3 μM solution in blood (0.1% DMSO content) was quickly stirred and 100 μl for each time point were transferred to an eppendorf. Each compound was tested in duplicate at five time points (10, 20, 30, 40 and 60 min). At each time point, the reaction was stopped by quenching the spiked blood (100 μl) with 400 μl of 100% acetonitrile containing 0.1% formic acid. Then samples were centrifuged at 15600 rpm for 15 min at +4° C. and 200 μl of supernatant were transferred to a 96-deepwell plate. Samples were evaporated under N2 and reconstituted in H2O/ACN 0.1% formic Acid (98/2 v/v) containing the appropriate internal standard. Analysis was performed without a calibration curve by using an Acquity-UPLC (Waters) coupled to a triple quadrupole mass spectrometer (SciexAPI4000). Time point 0 was obtained by adding 3 μL of each 200 μM working solution to 997 μL of the supernatant obtaining after centrifugation (15600 rpm for 15 min at +4° C.) of the blank matrix quenched with acetonitrile containing 0.1% formic acid.
Stability was determined based on analysis of disappearance of the compounds as a function of incubation time. Quantification of test compounds was measured as a peak area relative to an internal standard. The elimination constant k and half-life (t1/2) were determined as described above in Example 7.

[2] = Diastereoisomer A (upfield shift in 31P NMR), read-out: t1/2 (h) Human Whole Blood Diastereoisomer A (converted)
[3] = Diastereoisomer B, read-out: t1/2 (h) Human Whole Blood Diastereoisomer B (converted)

Compound | half-life at 3 μM [1, 2] [h] | half-life at 3 μM [1, 3] [h] | fold induction at 50 µM (PANK2−/− IMR32 cells; Homo sapiens, IMR-32) | fold induction at 1 µM (PANK2−/− IMR32 cells; Homo sapiens, IMR-32) | further results
CC(=O)SCCNC(=O)CCNC(=O)[C@@H]1O[P@@](=O)(OCOC(=O)c2cc(C(C)(C)C)n[nH]2)OCC1(C)C [R1016, (((2S,4R)-4-((3-((2-(acetylthio)ethyl)amino)-3-oxopropyl)carbamoyl)-5,5-dimethyl-2-oxido-1,3,2-dioxaphosphinan-2-yl)oxy)methyl 3-(tert-butyl)-1H-pyrazole-5-carboxylate] |  |  |  | 323 | 
CC(=O)SCCNC(=O)CCNC(=O)[C@@H]1OP(=O)(OCOC(=O)c2ccc(Cl)cc2)OCC1(C)C (stereo partly drawn) [R1033, (((4R)-4-((3-((2-(acetylthio)ethyl)amino)-3-oxopropyl)carbamoyl)-5,5-dimethyl-2-oxido-1,3,2-dioxaphosphinan-2-yl)oxy)methyl 4-chlorobenzoate] |  |  |  | 25.8 | 
CC(=O)OCC(C)(C)NC(=O)OCOP1(=O)OCC(C)(C)[C@H](C(=O)NCCC(=O)NCCSC(C)=O)O1 (stereo partly drawn) [R1027, 2-((((((4R)-4-((3-((2-(acetylthio)ethyl)amino)-3-oxopropyl)carbamoyl)-5,5-dimethyl-2-oxido-1,3,2-dioxaphosphinan-2-yl)oxy)methoxy)carbonyl)amino)-2-methylpropyl acetate] |  |  | 2.8 |  | 
CC(=O)SCCNC(=O)CCNC(=O)[C@@H]1OP(=O)(OCOC(=O)c2ccc(C(F)(F)F)cn2)OCC1(C)C (stereo partly drawn) [R1040, (((4R)-4-((3-((2-(acetylthio)ethyl)amino)-3-oxopropyl)carbamoyl)-5,5-dimethyl-2-oxido-1,3,2-dioxaphosphinan-2-yl)oxy)methyl 5-(trifluoromethyl)picolinate] |  |  | 4.5 |  | 
CC(=O)SCCNC(=O)CCNC(=O)[C@@H]1O[P@](=O)(Oc2ccccc2)OCC1(C)C [R1042, S-(2-(3-((2R,4R)-5,5-dimethyl-2-oxido-2-phenoxy-1,3,2-dioxaphosphinane-4-carboxamido)propanamido)ethyl) ethanethioate] |  |  |  |  | PANK2−/− CoA Fold increase (PANK2−/− IMR32 cells; compound concentration 10 uM): 1.0 fold
CC(=O)OCCNC(=O)OCOP1(=O)OCC(C)(C)[C@H](C(=O)NCCC(=O)NCCSC(C)=O)O1 (stereo partly drawn) [R1025, 2-((((((4R)-4-((3-((2-(acetylthio)ethyl)amino)-3-oxopropyl)carbamoyl)-5,5-dimethyl-2-oxido-1,3,2-dioxaphosphinan-2-yl)oxy)methoxy)carbonyl)amino)ethyl acetate] |  |  |  |  | fold induction at 10 µM (PANK2−/− IMR32 cells; Homo sapiens, IMR-32, compound concentration 10 uM): 1.4
CC(=O)SCCNC(=O)CCNC(=O)[C@@H]1OP(=O)(OCOC(=O)c2cccc(C)c2)OCC1(C)C (stereo partly drawn) [R1039, (((4R)-4-((3-((2-(acetylthio)ethyl)amino)-3-oxopropyl)carbamoyl)-5,5-dimethyl-2-oxido-1,3,2-dioxaphosphinan-2-yl)oxy)methyl 3-methylbenzoate] |  |  |  | 27.4 | 
CC(=O)SCCNC(=O)CCNC(=O)[C@@H]1OP(=O)(OCOC(=O)c2cc(C(C)(C)C)nn2C)OCC1(C)C (stereo partly drawn) [R1010, (((4R)-4-((3-((2-(acetylthio)ethyl)amino)-3-oxopropyl)carbamoyl)-5,5-dimethyl-2-oxido-1,3,2-dioxaphosphinan-2-yl)oxy)methyl 3-(tert-butyl)-1-methyl-1H-pyrazole-5-carboxylate] |  |  |  | 200 | 

More lines, main results first:

half-life at 3 μM [1, 2] [h] | half-life at 3 μM [1, 3] [h] | Compound | fold induction at 50 µM (PANK2−/− IMR32 cells; Homo sapiens, IMR-32) | fold induction at 1 µM (PANK2−/− IMR32 cells; Homo sapiens, IMR-32) | further results
0.42 | < 0.16 | CC(=O)SCCNC(=O)CCNC(=O)[C@@H]1OP(=O)(OCOC(=O)c2ccnn2C)OCC1(C)C (stereo partly drawn) [R1011, (((4R)-4-((3-((2-(acetylthio)ethyl)amino)-3-oxopropyl)carbamoyl)-5,5-dimethyl-2-oxido-1,3,2-dioxaphosphinan-2-yl)oxy)methyl 1-methyl-1H-pyrazole-5-carboxylate] | 102 |  | 
0.65 |  | COC(=O)[C@H](CSC(=O)C(C)(C)C)NC(=O)OCOP1(=O)OCC(C)(C)[C@H](C(=O)NCCC(=O)NCCSC(C)=O)O1 (stereo partly drawn) [R1020, methyl N-(((((4R)-4-((3-((2-(acetylthio)ethyl)amino)-3-oxopropyl)carbamoyl)-5,5-dimethyl-2-oxido-1,3,2-dioxaphosphinan-2-yl)oxy)methoxy)carbonyl)-S-pivaloyl-L-cysteinate] | 74.2 |  | 
0.31 | 0.17 | CC(=O)SCCNC(=O)CCNC(=O)[C@@H]1OP(=O)(OCOC(=O)NCCSC(=O)C(C)(C)C)OCC1(C)C (stereo partly drawn) [R1023, S-(2-((((((4R)-4-((3-((2-(acetylthio)ethyl)amino)-3-oxopropyl)carbamoyl)-5,5-dimethyl-2-oxido-1,3,2-dioxaphosphinan-2-yl)oxy)methoxy)carbonyl)amino)ethyl) 2,2-dimethylpropanethioate] | 17 |  | 
 | < 0.16 | CC(=O)SCCNC(=O)CCNC(=O)[C@@H]1O[P@](=O)(OCOC(=O)c2cc(C(C)(C)C)n[nH]2)OCC1(C)C [R1019, (((2R,4R)-4-((3-((2-(acetylthio)ethyl)amino)-3-oxopropyl)carbamoyl)-5,5-dimethyl-2-oxido-1,3,2-dioxaphosphinan-2-yl)oxy)methyl 3-(tert-butyl)-1H-pyrazole-5-carboxylate] |  | 28.8 | 
< 0.16 | < 0.16 | CC(=O)OCOP1(=O)OCC(C)(C)[C@H](C(=O)NCCC(=O)NCCSC(C)=O)O1 (stereo partly drawn) [R1022, (((4R)-4-((3-((2-(acetylthio)ethyl)amino)-3-oxopropyl)carbamoyl)-5,5-dimethyl-2-oxido-1,3,2-dioxaphosphinan-2-yl)oxy)methyl acetate] | 114 |  | 
 | > 1 | COC(=O)[C@@H](N[P@]1(=O)OCC(C)(C)[C@H](C(=O)NCCC(=O)NCCSC(C)=O)O1)C(C)C [R1015, methyl ((2S,4R)-4-((3-((2-(acetylthio)ethyl)amino)-3-oxopropyl)carbamoyl)-5,5-dimethyl-2-oxido-1,3,2-dioxaphosphinan-2-yl)-L-valinate] | 2.1 |  | 
0.32 |  | CC(=O)SCCNC(=O)CCNC(=O)[C@@H]1OP(=O)(OCOC(=O)NCCSC(=O)[C@@H](N)C(C)C)OCC1(C)C (stereo partly drawn) [R1021, S-(2-((((((4R)-4-((3-((2-(acetylthio)ethyl)amino)-3-oxopropyl)carbamoyl)-5,5-dimethyl-2-oxido-1,3,2-dioxaphosphinan-2-yl)oxy)methoxy)carbonyl)amino)ethyl) (2S)-2-amino-3-methylbutanethioate] | 3.7 |  | 
0.41 |  | CC(=O)SCCNC(=O)CCNC(=O)[C@@H]1OP(=O)(OCOC(=O)NC(C)(C)COC(=O)[C@@H](N)C(C)C)OCC1(C)C (stereo partly drawn) [R1012, 2-((((((4R)-4-((3-((2-(acetylthio)ethyl)amino)-3-oxopropyl)carbamoyl)-5,5-dimethyl-2-oxido-1,3,2-dioxaphosphinan-2-yl)oxy)methoxy)carbonyl)amino)-2-methylpropyl L-valinate] | 1.5 |  | 

— US20190337971A1, “PANTETHEINE DERIVATIVES FOR THE TREATMENT OF NEUROLOGIC DISORDERS” (Retrophin, Inc., priority 2016, published 2019)
